Source: patent US10406246B2, “Double-labeled probe for molecular imaging and use thereof” (DEUTSCHES KREBSFORSCHUNGSZENTRUM, priority 2013, dated 2019)

Columns and labels:
PSMA = molecular target: T1, PSMA (Homo sapiens, UniProt Q04609); assay: in vitro competitive cell binding assay on LNCaP cells against 68Ga-labeled [Glu-urea-Lys(Ahx)]2-HBED-CC; conditions: 12 concentrations of analyte 0-5000 nM, mean of three experiments
T1 construct: host or cells: LNCaP cells
Description: (§1) The competitive cell binding assay and internalization experiments were performed as described previously (Eder et al. 2012). Briefly, the respective cells (10^5 per well) were incubated with the radiometal (^68Ga-labeled [Glu-urea-Lys(Ahx)]2-HBED-CC (Schafer et al. 2012)) in the presence of 12 different concentrations of analyte (0-5000 nM, 100 μL/well). After incubation, washing was carried out using a multiscreen vacuum manifold (Millipore, Billerica, Mass.). Cell-bound radioactivity was measured using a gamma counter (Packard Cobra II, GMI, Minnesota, USA). The 50% inhibitory concentration (IC50) was calculated by fitting the data using a nonlinear regression algorithm (GraphPad Software). Experiments were performed three times.
as §1, with “al.,” for “al.”, “radioligand” for “radiometal”, “(Schäfer” for “(Schafer”, “The 50% inhibitory concentration (IC50) was calculated by fitting the data using a nonlinear regression algorithm (GraphPad Software). Experiments were performed three times.” left out

LNCaP tumor [1] = assay: comparative PET imaging of 68Ga-labeled PSMA-HBED-CC conjugates; format: in vivo; conditions: 1 hour post injection, LNCaP tumor-bearing nude mice
Description: The ^68Ga-labeled compounds PSMA-HBED-CC-FITC (the compound depicted above), PSMA-Ahx-HBED-CC-cyanine 5.5 (the compound depicted above, of which the mass was determined by mass spectrometry as being M(calculated)=1642.98; M(found)=1642.7) and PSMA-Ahx-HBED-CC (the corresponding compound without cyanine 5.5) and were injected into an LNCaP tumor-bearing nude mice. One hour post injection, […] was performed.

[2] = test system: PSMA positive LNCaP tumors; assay: organ distribution in LNCaP tumor bearing xenografts; format: in vivo, BALB/c nu/nu mice; conditions: 68Ga-labeled, 1 h post injection; for Organ distribution, Blood, Mean / Organ distribution, Brain, Mean / Organ distribution, Heart, Mean / Organ distribution, Intestine, Mean / Organ distribution, Kidney, Mean / Organ distribution, Liver, Mean / Organ distribution, Lung, Mean / Organ distribution, Muscle, Mean / Organ distribution, Spleen, Mean / Organ distribution, Tumor (tumor uptake), Mean: 0.06 nmol, tail vein, n=3; for distribution profile in healthy organs: both compounds compared with each other; for Organ distribution, Tumor (tumor uptake), Mean: PSMA positive LNCaP tumors
Description: 7- to 8-week-old male BALB/c nu/nu mice (Charles River Laboratories) were subcutaneously inoculated into the right trunk with 5×10^6 cells of LNCaP (in 50% Matrigel; Becton Dickinson, Heidelberg, Germany). The tumors were allowed to grow until approximately 1 cm^3 in size. The radiolabeled compounds were injected into the tail vein (approx. 1 MBq per mouse; 0.06 nmol). At 1 h after injection the animals were sacrificed. Organs of interest were dissected, blotted dry, and weighed. The radioactivity was measured using a gamma counter and calculated as % ID/g.

LNCaP cells = assay: specific cell uptake, cell surface binding and internalization; format: cell-based, human; conditions: 68Ga-labeled
Description: To determine the specific cell uptake and internalization, 10^5 cells were seeded in poly-L-lysine coated 24-well cell culture plates 24 h before incubation. After washing, the cells were incubated with 25 nM of the radiolabeled compounds for 45 min at 37° C. and at 4° C., respectively. Specific cellular uptake was determined by competitive blocking with 2-(phosphonomethyl)pentanedioic acid (500 μM final concentration, PMPA, Axxora, Loerrach, Germany). Cellular uptake was terminated by washing 4 times with 1 mL of ice-cold PBS. Cells were subsequently incubated twice with 0.5 mL glycine-HCl in PBS (50 mM, pH=2.8) for 5 min to remove the surface-bound fraction. The cells were washed with 1 mL of ice-cold PBS and lysed using 0.3 N NaOH (0.5 mL). The surface-bound and the internalized fractions were measured in a gamma counter. The cell uptake was calculated as percent of the initially added radioactivity bound to 10^6 cells [% ID/10^6 cells].

LNCaP tumor [3] = assay: comparative organ distribution versus Banerjee reference compounds; format: in vivo; conditions: 1 hour post injection, LNCaP tumor-bearing nude mice
Description: PSMA-Ahx-HBED-CC-FITC (as shown above) was compared with a reference compound published by Banerjee et al. (Banerjee et al., 2011, Angew Chem Int Ed Engl. 50(39):9167-9170, page 6, scheme 1, final product) and the corresponding compound without the fluorescent dye IRDye800CW bearing a free amino group of the lysyl moiety the dye IRDye800CW can be bound to. These compounds were injected into LNCaP tumor-bearing nude mice.

T1 sequence (Q04609 whole entry): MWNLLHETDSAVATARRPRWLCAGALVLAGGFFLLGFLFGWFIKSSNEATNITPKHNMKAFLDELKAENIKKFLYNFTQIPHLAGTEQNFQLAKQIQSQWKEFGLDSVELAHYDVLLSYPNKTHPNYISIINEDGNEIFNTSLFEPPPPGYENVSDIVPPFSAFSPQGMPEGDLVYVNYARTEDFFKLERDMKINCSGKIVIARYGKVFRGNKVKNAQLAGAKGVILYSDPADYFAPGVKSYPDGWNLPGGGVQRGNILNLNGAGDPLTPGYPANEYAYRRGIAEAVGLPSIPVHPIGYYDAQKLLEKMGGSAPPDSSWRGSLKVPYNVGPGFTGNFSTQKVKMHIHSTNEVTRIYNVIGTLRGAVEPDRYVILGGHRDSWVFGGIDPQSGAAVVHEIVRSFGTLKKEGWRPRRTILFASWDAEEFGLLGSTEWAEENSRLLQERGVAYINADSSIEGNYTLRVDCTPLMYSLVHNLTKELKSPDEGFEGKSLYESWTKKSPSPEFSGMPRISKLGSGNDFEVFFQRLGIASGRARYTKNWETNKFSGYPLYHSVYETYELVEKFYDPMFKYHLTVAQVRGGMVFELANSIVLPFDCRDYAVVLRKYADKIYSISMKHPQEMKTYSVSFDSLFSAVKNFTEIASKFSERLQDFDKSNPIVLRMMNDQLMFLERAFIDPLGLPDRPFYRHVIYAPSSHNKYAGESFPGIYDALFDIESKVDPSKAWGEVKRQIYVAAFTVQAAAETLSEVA

Row | Organ distribution, Tumor (tumor uptake), Mean ([2]; listed as Glu-urea-Lys-HBED-CC-dye) [% ID/g] | tumor uptake versus Banerjee reference compounds (LNCaP tumor [3]) | Structure (SMILES) | IC50 (PSMA) [nM] | distribution of radioactivity and tumor uptake (PET imaging) (LNCaP tumor [1]) | Organ distribution, Blood, Mean [2] [% ID/g] | Organ distribution, Brain, Mean [2] [% ID/g] | Organ distribution, Heart, Mean [2] [% ID/g] | Organ distribution, Intestine, Mean [2] [% ID/g] | Organ distribution, Kidney, Mean [2] [% ID/g] | Organ distribution, Liver, Mean [2] [% ID/g] | Organ distribution, Lung, Mean [2] [% ID/g] | Organ distribution, Muscle, Mean [2] [% ID/g] | Organ distribution, Spleen, Mean [2] [% ID/g] | distribution profile in healthy organs [2] | Organ distribution, Tumor (tumor uptake), Mean [2] [% ID/g] | Organ distribution, Tumor (tumor uptake), Mean ([2]; listed as Glu-urea-Lys-HBED-CC) [% ID/g] | internalization by LNCaP cells (LNCaP cells; 25 nM, 45 min, competitive blocking with 500 μM 2-PMPA (P<0.001)) | cell uptake and internalization profile versus Glu-urea-Lys-HBED-CC (LNCaP cells; LNCaP cells)
1 | – | – | O=C(O)CCc1ccc(O)c(CN(CCN(CC(=O)O)Cc2cc(CCC(=O)NCCCCCC(=O)NCCCC[C@H](NC(=O)N[C@@H](CCC(=O)O)C(=O)O)C(=O)O)ccc2O)CC(=O)O)c1 [Glu-urea-Lys(Ahx)-HBED-CC, reference compound] | 9.82 ± 1.26 | comparable distribution of radioactivity and tumor uptake | 0.53 | 0.40 | 0.83 | 1.14 | 139.44 | 1.43 | 2.36 | 1.00 | 17.88 | comparable | 4.89±1.34 | 4.89 | – | –
2 | 10.86 | – | O=C(O)CCC(NC(=O)NC(CCCCNC(=O)CCc1ccc(O)c(CN(CCN(CC(=O)O)Cc2cc(CCC(=O)NCCOCCOCCNC(=S)Nc3ccc4c(c3)C(=O)OC43c4ccc(O)cc4Oc4cc(O)ccc43)ccc2O)CC(=O)O)c1)C(=O)O)C(=O)O (centres unmarked) [Glu-urea-Lys-HBED-CC-Fluorescein] | 11.1 ± 1.16 | comparable distribution of radioactivity and tumor uptake | 1.34 | 0.31 | 2.22 | 0.81 | 138.18 | 1.71 | 3.09 | 1.84 | 45.24 | comparable | 10.86±0.94 | – | specifically internalized | not considerably changed
3 | – | significantly improved | O=C(O)CCC(NC(=O)NC(CCCCNC(=O)CCCCCNC(=O)CCc1ccc(O)c(CN(CCN(CC(=O)O)Cc2cc(CCC(=O)NCCOCCOCCNC(=S)Nc3ccc4c(c3)C(=O)OC43c4ccc(O)cc4OC4C=C(O)C=CC43)ccc2O)CC(=O)O)c1)C(=O)O)C(=O)O (centres unmarked) [PSMA-Ahx-HBED-CC-FITC] | – | – | – | – | – | – | – | – | – | – | – | – | – | – | – | –
4 | – | – | CN1/C(=C/C=C/C=C/C2=[N+](CCCCCC(=O)NCCOCCOCCNC(=O)CCc3ccc(O)c(CN(CCN(CC(=O)O)Cc4cc(CCC(=O)NCCCCCC(=O)NCCCCC(NC(=O)NC(CCC(=O)O)C(=O)O)C(=O)O)ccc4O)CC(=O)O)c3)c3ccc4ccccc4c3C2(C)C)C(C)(C)c2c1ccc1ccccc21 (centres unmarked) [PSMA-Ahx-HBED-CC-cyanine 5.5] | – | comparable distribution of radioactivity and tumor uptake | – | – | – | – | – | – | – | – | – | – | – | – | – | –
